Reference: patent publication US10869929B2, “Phosphonate linkers and their use to facilitate cellular retention of compounds” (priority 2016, dated 2020)

Assays:
GILZ gene = GILZ gene assay (qPCR, HUT78 / 786-O cells); format: cell-based; details: for EC50: read-out: GILZ EC50
MDCKII cells = assay: Apparent permeability in MDCKII cells; format: in vitro ADME; details: 1 μM, t=3 hr, average of A to B and B to A Papp
glucocorticoid receptor = glucocorticoid receptor (Homo sapiens (Human), UniProt P04150); assay: PolarScreen Glucocorticoid Receptor Competitor Assay (GR binding); details: fluormone GS red, GR full length protein; read-out: GR Bind IC50
Chain of glucocorticoid receptor (P04150 whole entry): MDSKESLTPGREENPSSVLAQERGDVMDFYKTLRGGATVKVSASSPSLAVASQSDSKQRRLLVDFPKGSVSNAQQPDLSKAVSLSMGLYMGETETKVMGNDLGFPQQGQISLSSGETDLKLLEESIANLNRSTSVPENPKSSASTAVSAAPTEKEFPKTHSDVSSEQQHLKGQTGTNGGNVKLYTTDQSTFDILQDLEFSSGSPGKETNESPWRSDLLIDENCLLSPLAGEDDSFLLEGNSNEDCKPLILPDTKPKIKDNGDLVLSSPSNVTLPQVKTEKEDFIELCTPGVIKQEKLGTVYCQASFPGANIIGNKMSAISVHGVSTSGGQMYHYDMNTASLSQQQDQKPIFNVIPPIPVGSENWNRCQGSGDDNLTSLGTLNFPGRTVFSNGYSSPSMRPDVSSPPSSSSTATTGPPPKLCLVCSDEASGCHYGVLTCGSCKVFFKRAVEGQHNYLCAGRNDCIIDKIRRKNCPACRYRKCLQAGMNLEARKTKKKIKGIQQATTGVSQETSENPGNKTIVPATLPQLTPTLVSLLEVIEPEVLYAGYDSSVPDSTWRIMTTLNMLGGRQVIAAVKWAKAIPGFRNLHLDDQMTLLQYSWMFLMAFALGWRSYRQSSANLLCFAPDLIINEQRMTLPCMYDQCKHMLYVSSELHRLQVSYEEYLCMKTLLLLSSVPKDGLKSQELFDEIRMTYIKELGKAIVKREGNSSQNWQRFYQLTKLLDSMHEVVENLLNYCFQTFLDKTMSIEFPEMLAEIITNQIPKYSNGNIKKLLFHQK

ZBTB16 mRNA = assay: Up-regulation of ZBTB16 mRNA in primary human B cells; format: cell-based; details: for EC50: free payload
Method: The carrier solution for all ADCs and naked antibodies was 50 mM histidine pH 6.0, 100 mM NaCl and 5% trehelose. To assure consistency across experiments, ADCs were thawed on ice, dispensed to small aliquots, frozen to −80° C., and those aliquots were then used for experiments with unused material discarded at the end of the day. For all in vitro studies in this report, none of the read outs were measurably different in the presence or absence of the carrier solution. Nevertheless, the final concentration of antibody carrier solution was maintained constant at 1% v/v by serially diluting antibody solution prior to addition to the assay mixture and adding carrier solution to control wells.
For the studies of ADCs bearing reduced permeability payloads frozen human CD19+ B cells purchased from Precision Biosciences (catalog #84400, donor #13108) were thawed and re-suspended in RPMI1640 plus 10% heat-inactivated FBS (cell culture medium) at 1 million cells/mL. […] B cells were bulk treated in a 96-well block and subsequently dispensed to 96 well plates (100 μL and […] cells per well) and incubated at 37° C., 5% CO2 for 18 or 40 hr. Control wells containing equal percentages of DMSO (0.1%) and ADC buffer (1%) as sample wells were included. Cells were transferred to a 96 well v-bottom plate and spun at 500×g for 5 min. Medium was removed and cells were lysed in 150 μL RLT buffer containing beta-mercaptoethanol. RNA was isolated (RNeasy 96 kit, Qiagen, Cat #74181) and cDNA was synthesized (iScript cDNA Synthesis Kit, BioRad, Cat #170-8891) according to the supplier's protocol. Quantitative PCR was performed on Applied Biosystem's 7900 HT Real-Time PCR System to measure expression of ZBTB16 (Life Technologies, Hs00957433_m1) and GAPDH (Life Technologies, Hs02758991_g1) in duplex format.
The ΔΔCt method was used to calculate fold change of expression of ZBTB16 relative to control sample, using 3 replicates per treatment condition. For free cell impermeable compounds, B cells were seeded at 100,000 cells/well in 90 μL in a 96-well flat bottom plate. Three fold serial dilutions were performed in DMSO, subsequent intermediate 10× stocks were made in tissue-culture medium and then added to the cell plate (10 μL/well). Cells were incubated at 37° C., 5% CO2 for 18 hr, harvested and processed for PCR as described above. EC50 curves were calculated using Graph Pad Prism 6 software using nonlinear fit (agonist) vs. response-variable slope (four parameters) calculation.
Potency and maximum activity of reduced permeability glucocorticoids (free payload) and the corresponding anti-CD74-drug conjugates on up-regulation of ZBTB16 mRNA levels in primary human B cells in vitro.

EC50 (ZBTB16 mRNA) [nM] | Compound | GILZ Max (GILZ gene; concentration not given) [%] | EC50 (GILZ gene) [nM] | MDCK Permeability (cm × 10−6/sec) (MDCKII cells) | IC50 (glucocorticoid receptor) [nM] | GILZ Max (GILZ gene; at 10 uM) | ZBTB16 mRNA Max relative to free fluticasone (ZBTB16 mRNA) [%] | EC50 (ZBTB16 mRNA; B-cell) [nM] | GILZ Max (GILZ gene; at 100 nM)
– | CCCC1O[C@@H]2C[C@H]3[C@@H]4CCC5=CC(=O)C=C[C@]5(C)[C@H]4[C@@H](O)C[C@]3(C)[C@]2(C(=O)CO)O1 (stereo partly drawn) [Budesonide, reference compound] | 100 | 1 | 31.6 | – | – | – | – | –
– | CCC(=O)O[C@]1(C(=O)SCCCCCCCCCCP(=O)(O)O)[C@H](C)C[C@H]2[C@@H]3C[C@H](F)C4=CC(=O)C=C[C@]4(C)[C@@]3(F)[C@@H](O)C[C@@]21C [Compound 3, (10-(((6S,8S,9R,10S,11S,13S,14S,16R,17R)-6,9-difluoro-11-hydroxy-10,13,16-trimethyl-3-oxo-17-(propionyloxy)-6,7,8,9,10,11,12,13,14,15,16,17-dodecahydro-3H-cyclopenta[a]phenanthrene-17-carbonyl)thio)decyl)phosphonic acid] | – | 649 | 1.04 | 0.44 | 71% (at | 75 | 1100 | –
– | CCC(=O)O[C@]1(C(=O)SCCCCP(=O)(O)O)[C@H](C)C[C@H]2[C@@H]3C[C@H](F)C4=CC(=O)C=C[C@]4(C)[C@@]3(F)[C@@H](O)C[C@@]21C [Compound 4] | – | > 100 | 1.72 | 0.71 | – | – | – | <10% (at
– | C[C@@H]1C[C@H]2[C@@H]3C[C@H](F)C4=CC(=O)C=C[C@]4(C)[C@@]3(F)[C@@H](O)C[C@]2(C)[C@@]1(O)C(=O)SCCCCP(=O)(O)O [Compound 5] | – | > 10000 | 1.84 | 160 | – | – | – | 24% (at
– | CCC(=O)O[C@]1(C(=O)SCCOCCOCCP(=O)(O)O)[C@H](C)C[C@H]2[C@@H]3C[C@H](F)C4=CC(=O)C=C[C@]4(C)[C@@]3(F)[C@@H](O)C[C@@]21C [Compound 6] | – | > 10000 | – | 0.32 | 40% (at | – | – | –
– | CCC(=O)O[C@]1(C(=O)SCCCCCCP(=O)(O)O)[C@H](C)C[C@H]2[C@@H]3C[C@H](F)C4=CC(=O)C=C[C@]4(C)[C@@]3(F)[C@@H](O)C[C@@]21C [Compound 7] | – | 6450 | 2 | 0.45 | 64% (at | – | – | –
– | C[C@@H]1C[C@H]2[C@@H]3C[C@H](F)C4=CC(=O)C=C[C@]4(C)[C@@]3(F)[C@@H](O)C[C@]2(C)[C@@]1(O)C(=O)SCCCCCCCCCCP(=O)(O)O [Compound 8] | – | 970 | 2.8 | 0.25 | 66% (at | – | – | –
– | C[C@@H]1C[C@H]2[C@@H]3C[C@H](F)C4=CC(=O)C=C[C@]4(C)[C@@]3(F)[C@@H](O)C[C@]2(C)[C@@]1(O)C(=O)SCCOCCOCCP(=O)(O)O [Compound 9] | – | > 10000 | – | 1.67 | 14.5% | – | – | –
– | C[C@@H]1C[C@H]2[C@@H]3C[C@H](F)C4=CC(=O)C=C[C@]4(C)[C@@]3(F)[C@@H](O)C[C@]2(C)[C@@]1(O)C(=O)SCCCCCCP(=O)(O)O [Compound 10] | – | > 10000 | 1.9 | 1.99 | 17.3% | – | – | –
– | C[C@@H]1C[C@H]2[C@@H]3C[C@H](F)C4=CC(=O)C=C[C@]4(C)[C@@]3(F)[C@@H](O)C[C@]2(C)[C@@]1(O)C(=O)SCCP(=O)(O)O [Compound 11] | – | 2860 | – | – | 81% (at | – | – | –
– | CCC(=O)O[C@]1(C(=O)SCCP(=O)(O)O)[C@H](C)C[C@H]2[C@@H]3C[C@H](F)C4=CC(=O)C=C[C@]4(C)[C@@]3(F)[C@@H](O)C[C@@]21C [Compound 12] | – | 6780 | – | 162 | 36% (at | – | – | –
– | C[C@@H]1C[C@H]2[C@@H]3C[C@H](F)C4=CC(=O)C=C[C@]4(C)[C@@]3(F)[C@@H](O)C[C@]2(C)[C@@]1(O)C(=O)SCCCP(=O)(O)O [Compound 13] | – | > 10000 | – | 1220 | 24% (at | – | – | –
– | CCC(=O)O[C@]1(C(=O)SCCCP(=O)(O)O)[C@H](C)C[C@H]2[C@@H]3C[C@H](F)C4=CC(=O)C=C[C@]4(C)[C@@]3(F)[C@@H](O)C[C@@]21C [Compound 14] | – | > 10000 | – | 18.1 | 15% (at | – | – | –
– | C[C@@H]1C[C@H]2[C@@H]3C[C@H](F)C4=CC(=O)C=C[C@]4(C)[C@@]3(F)[C@@H](O)C[C@]2(C)[C@@]1(OC(=O)CCCCCP(=O)(O)O)C(=O)SCF [Compound 19, (6-(((6S,8S,9R,10S,11S,13S,14S,16R,17R)-6,9-difluoro-17-(((fluoromethyl)thio)carbonyl)-11-hydroxy-10,13,16-trimethyl-3-oxo-6,7,8,9,10,11,12,13,14,15,16,17-dodecahydro-3H-cyclopenta[a]phenanthren-17-yl)oxy)-6-oxohexyl)phosphonic acid] | – | 1290 | – | 0.14 | 88% (at | – | – | –
– | CCCC1O[C@@H]2C[C@H]3[C@@H]4CCC5=Cc6c(cnn6-c6cccc(OCCCCP(=O)(O)O)c6)C[C@]5(C)[C@H]4[C@@H](O)C[C@]3(C)[C@]2(C(=O)CO)O1 (stereo partly drawn) [Compound 28] | – | 1270 | 1.6 | 4.1 | 101% (at | – | – | –
– | CCCC1O[C@@H]2C[C@H]3[C@@H]4CCC5=Cc6c(cnn6-c6cccc(OCCCCCCCCCP(=O)(O)O)c6)C[C@]5(C)[C@H]4[C@@H](O)C[C@]3(C)[C@]2(C(=O)CO)O1 (stereo partly drawn) [Compound 29] | – | 558 | – | 24.2 | 96% (at | – | – | –
– | CCCC1O[C@@H]2C[C@H]3[C@@H]4CCC5=Cc6c(cnn6-c6ccc(OCCCCP(=O)(O)O)cc6)C[C@]5(C)[C@H]4[C@@H](O)C[C@]3(C)[C@]2(C(=O)CO)O1 (stereo partly drawn) [Compound 30] | – | 3010 | 1.9 | 2.4 | 61% (at | – | – | –
– | CCCC1O[C@@H]2C[C@H]3[C@@H]4CCC5=Cc6c(cnn6-c6ccc(OCCCCCCP(=O)(O)O)cc6)C[C@]5(C)[C@H]4[C@@H](O)C[C@]3(C)[C@]2(C(=O)CO)O1 (stereo partly drawn) [Compound 31] | – | 4180 | 4.1 | 3.9 | 47% (at | – | – | –
– | CCCC1O[C@@H]2C[C@H]3[C@@H]4CCC5=Cc6c(cnn6-c6ccc(OCCCCCCCCCP(=O)(O)O)cc6)C[C@]5(C)[C@H]4[C@@H](O)C[C@]3(C)[C@]2(C(=O)CO)O1 (stereo partly drawn) [Compound 32] | – | 4150 | – | 115 | 86% (at | – | – | –
– | C[C@@H]1C[C@H]2[C@@H]3CCC4=CC(=O)C=C[C@]4(C)[C@@]3(F)[C@@H](O)C[C@]2(C)[C@@]1(O)C(=O)CO [Dexamethasone, reference compound] | 100 | 3.7 | – | – | – | – | – | –
0.019 | CCC(=O)O[C@]1(C(=O)SCF)[C@H](C)C[C@H]2[C@@H]3C[C@H](F)C4=CC(=O)C=C[C@]4(C)[C@@]3(F)[C@@H](O)C[C@@]21C [Fluticasone Propionate, reference compound] | 100 | 0.2 | 21.5 | – | – | – | – | –
– | (6-(3-((3aR,4aS,4bS,11aR,11bS,12S,13aS,13bS)-12-hydroxy-13b-(2-hydroxyacetyl)-11a,13a-dimethyl-2-propyl-4,4a,5,6,11,11a,11b,12,13,13a-decahydro-[1,3]dioxolo[4″,5″:3′,4′]cyclopenta[1′,2′:5,6]naphtho[1,2-f]indazol-8 (3aH,4bH,13bH)-yl)phenoxy)hexyl)phosphonic acid [Compound 27] | – | 2760 | – | – | 80% (at | – | – | –
